This note sets out measurements from paper doi:10.1101/822718v2 (biorxiv, 2020).

Experiment [1] concerns the target T1, full-length elephant shark GR (Callorhinchus milii, UniProt V9KGN8).
T1 sequence (V9KGN8 1-704): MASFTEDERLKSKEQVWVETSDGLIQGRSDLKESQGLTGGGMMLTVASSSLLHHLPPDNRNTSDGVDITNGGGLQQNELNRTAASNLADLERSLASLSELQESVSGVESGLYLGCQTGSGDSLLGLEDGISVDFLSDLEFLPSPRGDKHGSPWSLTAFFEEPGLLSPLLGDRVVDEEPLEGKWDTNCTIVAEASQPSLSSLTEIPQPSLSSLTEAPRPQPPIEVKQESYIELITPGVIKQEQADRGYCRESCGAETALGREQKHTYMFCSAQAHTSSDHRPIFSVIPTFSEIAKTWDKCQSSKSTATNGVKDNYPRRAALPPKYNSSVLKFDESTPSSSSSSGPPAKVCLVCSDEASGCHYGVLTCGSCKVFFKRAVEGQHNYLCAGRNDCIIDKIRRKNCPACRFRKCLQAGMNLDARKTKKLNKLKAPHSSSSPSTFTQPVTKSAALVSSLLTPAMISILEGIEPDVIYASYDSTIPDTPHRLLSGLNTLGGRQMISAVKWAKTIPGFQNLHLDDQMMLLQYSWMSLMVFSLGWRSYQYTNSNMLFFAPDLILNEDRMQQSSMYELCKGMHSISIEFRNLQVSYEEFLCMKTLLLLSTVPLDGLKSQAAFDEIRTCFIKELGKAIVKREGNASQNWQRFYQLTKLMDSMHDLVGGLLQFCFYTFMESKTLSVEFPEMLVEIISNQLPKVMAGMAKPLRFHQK
Put plainly: cell-based. More on the design: species or system HEK293.

The target in experiment [2] is T1, full-length elephant shark GR. Put plainly: transactivation assay, MMTV-luciferase reporter, HEK293 cells. The experiment is classed as cell-based.
Experiment [3] concerns the target T2, truncated elephant shark MR (Elephant shark MR-DBD-hinge-LBD) (Callorhinchus milii, UniProt A0A4W3I5J5).
T2 sequence (A0A4W3I5J5 575-956 limits assumed): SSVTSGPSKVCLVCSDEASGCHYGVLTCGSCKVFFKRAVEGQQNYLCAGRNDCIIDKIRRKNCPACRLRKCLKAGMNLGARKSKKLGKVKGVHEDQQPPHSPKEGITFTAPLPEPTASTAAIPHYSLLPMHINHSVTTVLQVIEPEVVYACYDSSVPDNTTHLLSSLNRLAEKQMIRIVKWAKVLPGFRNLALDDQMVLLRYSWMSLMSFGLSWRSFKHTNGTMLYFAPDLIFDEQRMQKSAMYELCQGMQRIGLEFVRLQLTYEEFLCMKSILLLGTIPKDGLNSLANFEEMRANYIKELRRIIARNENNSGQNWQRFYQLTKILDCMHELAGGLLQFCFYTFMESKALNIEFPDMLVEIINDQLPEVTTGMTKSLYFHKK
Put plainly: cell-based. More on the design: species or system HEK293.

The subject of experiment [4] is Elephant shark Chimera GR-NTD+MR-DBD-hinge-LBD. The following applies: agonist.
The target of experiment [5] is T3, full-length elephant shark MR (Callorhinchus milii, UniProt A0A4W3I5J5).
T3 sequence (A0A4W3I5J5 1-956): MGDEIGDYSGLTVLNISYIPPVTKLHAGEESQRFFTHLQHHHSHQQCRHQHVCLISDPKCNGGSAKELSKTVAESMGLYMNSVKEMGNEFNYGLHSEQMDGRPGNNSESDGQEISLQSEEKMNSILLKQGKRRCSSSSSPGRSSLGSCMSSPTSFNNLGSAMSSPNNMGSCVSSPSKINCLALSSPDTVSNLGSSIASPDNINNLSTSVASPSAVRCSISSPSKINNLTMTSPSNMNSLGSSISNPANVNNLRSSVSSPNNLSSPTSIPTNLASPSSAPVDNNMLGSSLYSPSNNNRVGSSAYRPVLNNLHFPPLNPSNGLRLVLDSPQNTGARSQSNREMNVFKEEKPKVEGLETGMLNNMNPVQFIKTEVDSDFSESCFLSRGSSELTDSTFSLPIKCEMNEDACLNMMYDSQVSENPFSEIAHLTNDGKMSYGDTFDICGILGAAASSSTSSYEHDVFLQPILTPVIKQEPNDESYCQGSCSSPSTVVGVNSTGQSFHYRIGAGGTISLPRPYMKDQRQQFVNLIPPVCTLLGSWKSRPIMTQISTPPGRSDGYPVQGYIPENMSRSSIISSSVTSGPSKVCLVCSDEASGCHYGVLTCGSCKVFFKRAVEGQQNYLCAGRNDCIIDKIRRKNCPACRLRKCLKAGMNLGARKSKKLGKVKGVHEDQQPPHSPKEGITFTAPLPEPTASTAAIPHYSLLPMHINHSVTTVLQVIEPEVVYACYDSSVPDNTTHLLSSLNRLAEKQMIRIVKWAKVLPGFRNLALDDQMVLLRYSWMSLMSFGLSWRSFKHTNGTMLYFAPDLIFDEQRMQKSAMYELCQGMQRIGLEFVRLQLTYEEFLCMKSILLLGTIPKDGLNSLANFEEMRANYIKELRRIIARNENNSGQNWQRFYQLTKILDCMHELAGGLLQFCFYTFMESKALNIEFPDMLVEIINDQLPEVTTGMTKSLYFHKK
Kind of experiment: cell-based. On the set-up: species or system HEK293.

For experiment [6], the target named is truncated elephant shark MR (Elephant shark MR-DBD-hinge-LBD) (Callorhinchus milii, UniProt A0A4W3I5J5). Kind of experiment: cell-based.
The target in experiment [7] is T4, truncated elephant shark GR (Elephant shark GR-DBD-hinge-LBD) (Callorhinchus milii, UniProt V9KGN8).
T4 sequence (V9KGN8 346-704 limits assumed): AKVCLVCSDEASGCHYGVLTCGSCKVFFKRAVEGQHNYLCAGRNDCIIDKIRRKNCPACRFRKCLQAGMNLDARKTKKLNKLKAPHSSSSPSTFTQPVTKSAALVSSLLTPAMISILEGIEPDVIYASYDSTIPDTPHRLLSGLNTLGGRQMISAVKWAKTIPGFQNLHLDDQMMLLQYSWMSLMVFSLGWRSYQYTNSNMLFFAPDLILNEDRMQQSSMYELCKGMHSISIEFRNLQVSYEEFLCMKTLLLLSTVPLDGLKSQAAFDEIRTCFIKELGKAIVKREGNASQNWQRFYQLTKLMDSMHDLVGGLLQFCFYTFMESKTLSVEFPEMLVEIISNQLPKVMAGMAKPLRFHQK
Kind of experiment: cell-based. More on the design: species or system HEK293.

Experiment [8] concerns the target T2, truncated elephant shark MR (Elephant shark MR-DBD-hinge-LBD). Put plainly: cell-based. On the set-up: species or system HEK293. This is another data set of the same source.
The target of experiment [9] is T1, full-length elephant shark GR. Kind of experiment: luciferase reporter transactivation, HEK293 cells. Type of experiment: cell-based. (In general: A reporter such as luciferase makes a cellular process visible.)
The target is the same in experiment [10]. Put plainly: inhibition of dexamethasone-activated luciferase reporter, HEK293 cells. Type of experiment: cell-based.
Experiment [11] has as its target T5, GAL4-DBD+elephant shark GR-hinge-LBD (Callorhinchus milii, UniProt V9KGN8).
T5 sequence (V9KGN8 422-704 limits assumed): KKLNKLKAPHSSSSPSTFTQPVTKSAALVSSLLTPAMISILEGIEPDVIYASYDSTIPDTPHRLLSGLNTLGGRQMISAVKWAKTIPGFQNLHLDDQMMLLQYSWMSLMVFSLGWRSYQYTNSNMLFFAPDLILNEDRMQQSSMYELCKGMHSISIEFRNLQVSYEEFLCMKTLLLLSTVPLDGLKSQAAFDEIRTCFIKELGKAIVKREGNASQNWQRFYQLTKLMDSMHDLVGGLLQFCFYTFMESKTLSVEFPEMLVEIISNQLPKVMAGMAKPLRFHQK
Kind of experiment: cell-based. More on the design: species or system HEK293.

For experiment [12], the system named is Elephant shark Chimera MR-NTD+GR-DBD-hinge-LBD. Kind of experiment: transactivation assay, MMTV-luciferase reporter, HEK293 cells. The experiment is classed as cell-based, Callorhinchus milii. Conditions: agonist.
The mark [13] stands for this setting: HEK293, read-out: DOC % Relative Induction, GR.
[14] abbreviates: HEK293, read-out: DOC % Relative Induction, MR.
Where [15] appears, read: HEK293, read-out: Aldo % Relative Induction, GR.
Where [16] appears, read: HEK293, read-out: Corticosterone % Relative Induction, GR.
Where [17] appears, read: HEK293, read-out: Corticosterone % Relative Induction, MR.
The mark [18] stands for this setting: HEK293, read-out: Cortisol % Relative Induction, GR.
The mark [19] stands for this setting: HEK293, read-out: Cortisol % Relative Induction, MR.
The mark [20] stands for this setting: HEK293, read-out: Prog % Relative Induction, MR.

The structures appear in SMILES notation. Where two headings read alike, the source gives them in different places.

What is called EC50 is the concentration at which the effect is half-maximal. A higher EC50 goes with lower potency in that assay. Regarding `C[C@]12CC[C@H]3[C@@H](CCC4=CC(=O)CC[C@@]43C)[C@@H]1CC[C@@H]2C(=O)CO` [11-deoxycorticosterone], the Emax in experiment [1] (setting [13]) turned out to be 53%; in experiment [3] (setting [14]), 77%; in experiment [5] (setting [14]) it was 86%; in [7] (setting [13]) it was 30%. Further, the EC50 in [2] is roughly 28 nM; in experiment [4], 0.03 nM; in experiment [6] it was 0.1 nM.

In experiment [8], `CC(=O)[C@H]1CC[C@H]2[C@@H]3CCC4=CC(=O)CC[C@@H]4[C@H]3CC[C@]12C` [19norProg] gave an EC50 of 0.2 nM. In addition, the Emax in [5] (HEK293, read-out: 19norProg % Relative Induction, MR) is 79%.

For orientation: IC50 means the concentration that inhibits the measured activity by half. Low values mean higher potency, high ones lower potency. `CC#C[C@]1(O)CC[C@H]2[C@@H]3CCC4=CC(=O)CCC4=C3[C@@H](c3ccc(N(C)C)cc3)C[C@@]21C` [RU486]: the EC50 in [9] stood at 8.7 nM. In addition, in [10], the midpoint of inhibition, the IC50, lay at 2.2 nM.

For `C[C@]12CCC(=O)C=C1CC[C@@H]1[C@@H]2[C@@H](O)C[C@]2(C=O)[C@@H](C(=O)CO)CC[C@@H]12` [aldosterone], the results for the Emax in [1] (setting [15]), in experiment [7] (setting [15]) and in experiment [11] (setting [15]) were 92%, 109% and 81%, respectively. Besides, the EC50 in [2] is roughly 24 nM; in experiment [8], 0.26 nM.

For `C[C@]12C[C@H](O)[C@H]3[C@@H](CCC4=CC(=O)CC[C@@]43C)[C@@H]1CC[C@@H]2C(=O)CO` [corticosterone], the Emax is 100% in experiment [1] (setting [16]); 111% in [3] (setting [17]); 88% in experiment [5] (setting [17]); 100% in experiment [7] (setting [16]); 100% in experiment [11] (setting [16]). In addition, the EC50 is 13 nM in experiment [12] and 0.58 nM in experiment [8].

For `C[C@]12CCC(=O)C=C1CC[C@@H]1[C@@H]2[C@@H](O)C[C@@]2(C)[C@H]1CC[C@]2(O)C(=O)CO` [cortisol], the Emax worked out at 88% in experiment [1] (setting [18]), 117% in experiment [3] (setting [19]), 118% in [5] (setting [19]) and 112% in experiment [7] (setting [18]). Also, the results for the EC50 in experiment [2] and in experiment [8] were roughly 35 nM and 1.1 nM, respectively.

For the molecule `CC(=O)[C@H]1CC[C@H]2[C@@H]3CCC4=CC(=O)CC[C@]4(C)[C@H]3CC[C@]12C` [progesterone], the Emax in [3] (setting [20]) is 78%; in experiment [5] (setting [20]), 38%.
